# Several values for one entry are separate records, joined by “and”; a condition that tells them apart may be missing. Equal values may be shown once. Read-outs that look alike come from different tables or passages of the source.
# Assays:
# [1] = system: HEK293T cells; test: Cytotoxicity: apoptosis induction (caspase-3/7 DEVD fluorogenic DNA dye); details: HEK293T, 24 h, apoptotic cell count normalized to 0.1% DMSO, single replicates
# [2] = biological target: T1, TRIM24 (Homo sapiens, UniProt O15164); test: Liability panel screening by DSF: TRIM24; assay type: binding; details: DSF, 20 µM, n=2; read-out: Mean ΔTM TRIM24
# T1 construct: This panel comprised ten highly ligandable kinases and bromodomains; made in house
# T1 sequence (O15164 899-1004 limits assumed): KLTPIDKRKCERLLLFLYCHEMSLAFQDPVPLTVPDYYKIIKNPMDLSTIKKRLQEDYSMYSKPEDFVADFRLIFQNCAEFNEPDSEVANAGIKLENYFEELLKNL
# How it was run: (§1)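 Thermal shift: in-house recombinant protein at 2 µM in 10 mM HEPES pH 7.5 with 500 mM NaCl, SYPRO Orange 1:1000, heated at 3 °C/min to 85 °C in technical duplicates. Tm is the Boltzmann inflection point, reported as ∆Tm in K.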
# [3] = biological target: T2, AURKA (Homo sapiens, UniProt O14965); test: Liability panel screening by DSF: AURKA; assay type: binding; details: DSF, 20 µM, n=2; read-out: Mean ΔTM AURKA
# T2 construct: made in house
# T2 sequence (O14965 1-403): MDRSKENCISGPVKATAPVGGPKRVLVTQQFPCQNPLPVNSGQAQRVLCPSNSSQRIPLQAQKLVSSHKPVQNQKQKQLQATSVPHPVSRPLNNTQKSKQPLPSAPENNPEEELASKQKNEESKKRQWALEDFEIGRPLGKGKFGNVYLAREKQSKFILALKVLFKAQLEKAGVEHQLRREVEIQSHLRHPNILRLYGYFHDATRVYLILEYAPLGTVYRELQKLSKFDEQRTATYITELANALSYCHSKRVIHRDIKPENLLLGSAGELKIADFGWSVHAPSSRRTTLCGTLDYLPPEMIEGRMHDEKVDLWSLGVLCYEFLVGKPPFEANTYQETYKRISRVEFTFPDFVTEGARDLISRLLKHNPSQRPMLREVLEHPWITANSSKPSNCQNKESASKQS
# How it was run: as §1
# [4] = biological target: T3, CSNK1D (Homo sapiens, UniProt P48730); test: Liability panel screening by DSF: CSNK1D; assay type: binding; details: DSF, 20 µM, n=2; read-out: Mean ΔTM CSNK1D
# T3 construct: made in house
# T3 sequence (P48730 whole entry, species assumed): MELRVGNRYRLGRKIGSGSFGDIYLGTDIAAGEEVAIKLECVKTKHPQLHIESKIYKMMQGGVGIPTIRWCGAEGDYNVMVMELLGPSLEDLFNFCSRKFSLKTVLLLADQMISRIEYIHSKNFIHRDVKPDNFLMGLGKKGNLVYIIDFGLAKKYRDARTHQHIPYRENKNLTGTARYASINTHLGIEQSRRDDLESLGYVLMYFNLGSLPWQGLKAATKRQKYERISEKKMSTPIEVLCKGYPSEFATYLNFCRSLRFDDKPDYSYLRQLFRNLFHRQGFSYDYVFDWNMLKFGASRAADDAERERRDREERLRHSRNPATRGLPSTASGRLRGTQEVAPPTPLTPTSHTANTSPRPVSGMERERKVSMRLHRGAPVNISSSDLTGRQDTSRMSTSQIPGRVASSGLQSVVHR
# How it was run: as §1
# [5] = system: HEK293T cells; test: Cytotoxicity: growth-rate (change in confluence over 24 h); details: normalized to 0.1% DMSO control, single replicates (n=1...)
# [6] = system: NF-κB activity in HEK293 NF-κB reporter cells; test: NF-kB activity assay (GFP reporter, ionomycin/PMA); assay type: cell-based; details: n=3
# How it was run: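 Reporter readout: GFP-expressing cells normalized to confluence, imaged every 90 min across 24 h after ionomycin (100 ng/mL)/PMA (10 ng/mL) stimulation of HEK293 cells pre-treated 4 h with compound (0.1% DMSO); triplicate independent experiments.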
# [7] = biological target: T4, FGFR3 (Homo sapiens, UniProt P22607); test: Liability panel screening by DSF: FGFR3; assay type: binding; details: DSF, 20 µM, n=2; read-out: Mean ΔTM FGFR3
# T4 construct: made in house
# T4 sequence (P22607 23-806, species assumed): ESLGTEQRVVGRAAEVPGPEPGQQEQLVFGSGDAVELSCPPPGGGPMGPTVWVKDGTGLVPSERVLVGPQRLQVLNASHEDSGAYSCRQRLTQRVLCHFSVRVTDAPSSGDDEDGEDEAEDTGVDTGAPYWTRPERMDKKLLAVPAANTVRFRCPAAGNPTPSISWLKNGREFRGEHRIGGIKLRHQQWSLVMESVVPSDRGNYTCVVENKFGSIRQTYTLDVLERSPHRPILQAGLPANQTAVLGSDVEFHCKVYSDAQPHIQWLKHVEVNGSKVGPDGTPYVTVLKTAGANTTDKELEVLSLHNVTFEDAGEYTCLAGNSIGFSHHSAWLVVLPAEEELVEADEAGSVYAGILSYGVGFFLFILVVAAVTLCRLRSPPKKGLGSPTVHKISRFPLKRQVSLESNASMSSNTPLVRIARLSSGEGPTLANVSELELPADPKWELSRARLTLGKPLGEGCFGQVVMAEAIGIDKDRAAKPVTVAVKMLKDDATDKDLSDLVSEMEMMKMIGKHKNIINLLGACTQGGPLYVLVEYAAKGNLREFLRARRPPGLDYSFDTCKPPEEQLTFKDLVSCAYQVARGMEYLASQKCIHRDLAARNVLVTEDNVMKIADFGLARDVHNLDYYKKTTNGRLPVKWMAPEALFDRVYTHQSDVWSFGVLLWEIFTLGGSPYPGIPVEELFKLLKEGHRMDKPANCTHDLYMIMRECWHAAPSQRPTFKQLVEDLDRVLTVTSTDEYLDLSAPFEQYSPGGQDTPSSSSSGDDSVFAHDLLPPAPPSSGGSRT
# How it was run: as §1
# [8] = biological target: T5, MAPK1 (Homo sapiens, UniProt P28482); test: Liability panel screening by DSF: MAPK1; assay type: binding; details: DSF, 20 µM, n=2; read-out: Mean ΔTM MAPK1
# T5 construct: made in house
# T5 sequence (P28482 whole entry, species assumed): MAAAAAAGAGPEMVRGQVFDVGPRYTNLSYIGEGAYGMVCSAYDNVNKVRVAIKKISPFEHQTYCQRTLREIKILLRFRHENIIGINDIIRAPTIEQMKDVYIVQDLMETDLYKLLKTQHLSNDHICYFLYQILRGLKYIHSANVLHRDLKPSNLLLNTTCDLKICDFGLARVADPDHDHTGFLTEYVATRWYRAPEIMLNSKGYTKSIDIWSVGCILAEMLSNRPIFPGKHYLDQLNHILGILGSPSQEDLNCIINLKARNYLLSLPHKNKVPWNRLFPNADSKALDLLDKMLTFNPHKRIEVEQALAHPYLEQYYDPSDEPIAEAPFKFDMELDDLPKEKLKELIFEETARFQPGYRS
# How it was run: as §1
# [9] = biological target: T6, BRD4 (Homo sapiens, UniProt O60885); test: Liability panel screening by DSF: BRD4; assay type: binding; details: DSF, 20 µM, n=2; read-out: Mean ΔTM BRD4
# T6 construct: This panel comprised ten highly ligandable kinases and bromodomains; made in house
# How it was run: as §1
# [10] = system: Gal4-VP16; assay type: cell-based; details: vs. DMSO ctrl, single replicates n=1-3
# Description: Five hours after transfection, the cells were incubated with the NR3 CG compound candidates at the recommended concentrations by changing the medium to Opti-MEM supplemented with penicillin (100 µ/mL) and streptomycin (100 µg/mL) additionally containing 0.1% DMSO and the respective test compound or 0.1% DMSO alone as untreated control. Firefly (reporter) and renilla (control) luminescence were measured after 14–16 h incubation using the Dual-Glo® Luciferase Assay System (Promega, Fitchburg, Wisconsin, USA; #E2980) according to manufacturer’s protocol on a Tecan Spark® 10M multimode microplate reader (Tecan Group AG, Männedorf, Switzerland). To obtain relative light units (RLU) firefly luminescence was divided by renilla luminescence and multiplied by 1000. Fold activation was obtained by dividing the mean RLU of a test sample by the mean RLU of the DMSO (0.1%) control. Experiments were performed in singlets in at least three biologically independent repeats.
# are labeled according to their mode of action (yellow - agonist, grey - antagonist, grey with label D - degrader) and grouped by their
# NR3 subfamily main targets.
# reporter activity at the indicated concentrations expressed as mean fold reporter gene activity (n=3).
# [11] = system: HEK293T cells; test: Cytotoxicity: necrosis induction (red fluorescent dye for permeable plasma membranes); assay type: cell-based; details: 24 h, necrotic cell count normalized to 0.1% DMSO, single replicates;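 also: compounds applied in DMEM high glucose with 0.1% FCS and 0.1% DMSO, necrotic HEK293T cells counted by red staining of cells whose plasma membranes had become permeable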
# [12] = biological target: T7, GSK3B (Homo sapiens, UniProt P49841); test: Liability panel screening by DSF: GSK3B; assay type: binding; details: DSF, 20 µM, n=2; read-out: Mean ΔTM GSK3B
# T7 construct: made in house
# T7 sequence (P49841 whole entry, species assumed): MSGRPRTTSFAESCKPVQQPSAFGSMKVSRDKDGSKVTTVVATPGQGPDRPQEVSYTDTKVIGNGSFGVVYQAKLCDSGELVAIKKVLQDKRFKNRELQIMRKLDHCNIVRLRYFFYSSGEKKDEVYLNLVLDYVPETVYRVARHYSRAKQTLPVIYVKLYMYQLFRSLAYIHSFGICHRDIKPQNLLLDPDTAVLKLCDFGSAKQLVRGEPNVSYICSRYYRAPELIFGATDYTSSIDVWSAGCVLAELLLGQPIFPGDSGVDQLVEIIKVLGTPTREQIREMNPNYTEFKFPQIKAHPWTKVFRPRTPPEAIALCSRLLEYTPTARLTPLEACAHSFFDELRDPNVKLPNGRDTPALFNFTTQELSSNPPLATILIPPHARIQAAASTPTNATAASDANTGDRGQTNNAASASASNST
# [13] = biological target: T8, BRPF1 (Homo sapiens, UniProt P55201); test: Liability panel screening by DSF: BRPF1; assay type: binding; details: DSF, 20 µM, n=2; read-out: Mean ΔTM BRPF1
# T8 construct: This panel comprised ten highly ligandable kinases and bromodomains; made in house
# T8 sequence (P55201 628-732 limits assumed): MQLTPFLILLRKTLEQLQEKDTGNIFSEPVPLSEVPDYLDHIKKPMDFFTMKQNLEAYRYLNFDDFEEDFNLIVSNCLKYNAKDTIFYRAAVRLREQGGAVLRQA
# How it was run: as §1
# [14] = biological target: T9, CDK2 (Homo sapiens, UniProt P24941); test: Liability panel screening by DSF: CDK2; assay type: binding; details: DSF, 20 µM, n=2; read-out: Mean ΔTM CDK2
# T9 construct: made in house
# How it was run: as §1
# [15] = biological target: T10, ABL1 (Homo sapiens, UniProt P00519); test: Liability panel screening by DSF: ABL1; assay type: binding; details: DSF, 20 µM, n=2; read-out: Mean ΔTM ABL1
# T10 construct: made in house
# T10 sequence (P00519 whole entry, species assumed): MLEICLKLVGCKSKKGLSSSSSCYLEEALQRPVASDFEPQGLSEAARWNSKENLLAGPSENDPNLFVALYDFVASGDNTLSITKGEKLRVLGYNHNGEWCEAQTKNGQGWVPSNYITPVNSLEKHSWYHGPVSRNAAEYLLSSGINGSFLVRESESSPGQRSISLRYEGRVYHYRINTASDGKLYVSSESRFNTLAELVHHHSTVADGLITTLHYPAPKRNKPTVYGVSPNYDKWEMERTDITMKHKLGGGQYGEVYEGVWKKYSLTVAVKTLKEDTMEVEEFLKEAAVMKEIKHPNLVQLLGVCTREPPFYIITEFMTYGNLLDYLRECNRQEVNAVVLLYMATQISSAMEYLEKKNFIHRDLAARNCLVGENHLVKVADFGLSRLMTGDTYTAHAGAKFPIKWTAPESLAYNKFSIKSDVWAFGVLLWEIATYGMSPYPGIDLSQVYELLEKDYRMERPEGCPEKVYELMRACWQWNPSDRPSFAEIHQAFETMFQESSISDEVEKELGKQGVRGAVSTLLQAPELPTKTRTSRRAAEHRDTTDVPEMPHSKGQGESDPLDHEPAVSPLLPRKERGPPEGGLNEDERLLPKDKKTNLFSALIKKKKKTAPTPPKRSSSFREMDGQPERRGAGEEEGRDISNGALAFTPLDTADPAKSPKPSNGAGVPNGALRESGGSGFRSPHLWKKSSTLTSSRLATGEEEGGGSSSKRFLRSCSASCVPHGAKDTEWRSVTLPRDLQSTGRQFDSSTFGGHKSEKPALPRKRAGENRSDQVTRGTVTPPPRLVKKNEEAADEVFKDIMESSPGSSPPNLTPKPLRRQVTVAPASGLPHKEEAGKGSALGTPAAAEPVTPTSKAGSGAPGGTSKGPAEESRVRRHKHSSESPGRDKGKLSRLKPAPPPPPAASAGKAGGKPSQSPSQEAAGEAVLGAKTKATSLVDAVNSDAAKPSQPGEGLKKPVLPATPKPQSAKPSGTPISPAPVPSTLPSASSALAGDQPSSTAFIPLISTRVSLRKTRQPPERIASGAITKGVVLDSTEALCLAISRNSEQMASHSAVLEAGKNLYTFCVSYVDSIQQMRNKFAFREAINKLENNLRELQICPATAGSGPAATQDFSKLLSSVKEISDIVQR
# How it was run: as §1
smiles,measurement,setting,value
CC/C(=C(\c1ccc(O)cc1)c1ccc(OCCN(C)C)cc1)c1ccccc1 [(Z)-4-Hydroxytamoxifen],Apoptosis induction [AI],[1]; 0.3 µM,0.84 and 1.40 and 1.81 and 1.38 and 0.62 and 0.65
same,Apoptosis induction [AI],[1]; 3 µM,1.07 and 1.34 and 1.98 and 1.60 and 1.04 and 1.22
same,ΔTm at 20 µM,[2],-0.41 °C
same,ΔTm at 20 µM,[3],0.07 °C
same,ΔTm at 20 µM,[4],0.12 °C
same,Growth rate [GR],[5]; 0.3 µM,1.08 and 2.89 and 1.33 and 1.37 and 0.91 and 0.88 and 0.61 and 1.06 and 2.68 and 37.77
same,Growth rate [GR],[5]; 3 µM,0.97 and 4.28 and 1.10 and 0.79 and 0.56 and 0.41 and 0.43 and 1.54 and 1.12 and 39.66
same,Mean NFκB response,"[6]; 0.3 µM, 1,5 h",2504.77 GFP+-cells/confluence ∙ 1000
same,Mean NFκB response,"[6]; 0.3 µM, 4,5 h",3089.76 GFP+-cells/confluence ∙ 1000
same,Mean NFκB response,"[6]; 0.3 µM, 7,5 h",8223.00 GFP+-cells/confluence ∙ 1000
same,Mean NFκB response,"[6]; 0.3 µM, 10,5 h",20009.52 GFP+-cells/confluence ∙ 1000
same,Mean NFκB response,"[6]; 0.3 µM, 13,5 h",28937.88 GFP+-cells/confluence ∙ 1000
same,Mean NFκB response,"[6]; 0.3 µM, 16,6 h",35283.33 GFP+-cells/confluence ∙ 1000
same,Mean NFκB response,"[6]; 0.3 µM, 19,5 h",40116.67 GFP+-cells/confluence ∙ 1000
same,Mean NFκB response,"[6]; 0.3 µM, 22,5 h",43200.00 GFP+-cells/confluence ∙ 1000
same,Mean NFκB response,"[6]; 0.3 µM, 3 h",2555.89 GFP+-cells/confluence ∙ 1000
same,Mean NFκB response,"[6]; 0.3 µM, 6 h",4572.00 GFP+-cells/confluence ∙ 1000
same,Mean NFκB response,"[6]; 0.3 µM, 9 h",14658.14 GFP+-cells/confluence ∙ 1000
same,Mean NFκB response,"[6]; 0.3 µM, 12 h",24637.27 GFP+-cells/confluence ∙ 1000
same,Mean NFκB response,"[6]; 0.3 µM, 15 h",32269.00 GFP+-cells/confluence ∙ 1000
same,Mean NFκB response,"[6]; 0.3 µM, 18 h",37590.00 GFP+-cells/confluence ∙ 1000
same,Mean NFκB response,"[6]; 0.3 µM, 21 h",41653.33 GFP+-cells/confluence ∙ 1000
same,Mean NFκB response,"[6]; 0.3 µM, 24 h",44413.33 GFP+-cells/confluence ∙ 1000
same,Mean NFκB response,"[6]; 3 µM, 1,5 h",2613.90 GFP+-cells/confluence ∙ 1000
same,Mean NFκB response,"[6]; 3 µM, 4,5 h",3334.14 GFP+-cells/confluence ∙ 1000
same,Mean NFκB response,"[6]; 3 µM, 7,5 h",7514.38 GFP+-cells/confluence ∙ 1000
same,Mean NFκB response,"[6]; 3 µM, 10,5 h",19242.21 GFP+-cells/confluence ∙ 1000
same,Mean NFκB response,"[6]; 3 µM, 13,5 h",28764.40 GFP+-cells/confluence ∙ 1000
same,Mean NFκB response,"[6]; 3 µM, 16,6 h",35561.15 GFP+-cells/confluence ∙ 1000
same,Mean NFκB response,"[6]; 3 µM, 19,5 h",40217.80 GFP+-cells/confluence ∙ 1000
same,Mean NFκB response,"[6]; 3 µM, 22,5 h",43818.60 GFP+-cells/confluence ∙ 1000
same,Mean NFκB response,"[6]; 3 µM, 3 h",2770.52 GFP+-cells/confluence ∙ 1000
same,Mean NFκB response,"[6]; 3 µM, 6 h",4451.37 GFP+-cells/confluence ∙ 1000
same,Mean NFκB response,"[6]; 3 µM, 9 h",13511.36 GFP+-cells/confluence ∙ 1000
same,Mean NFκB response,"[6]; 3 µM, 12 h",24240.37 GFP+-cells/confluence ∙ 1000
same,Mean NFκB response,"[6]; 3 µM, 15 h",32735.51 GFP+-cells/confluence ∙ 1000
same,Mean NFκB response,"[6]; 3 µM, 18 h",38442.69 GFP+-cells/confluence ∙ 1000
same,Mean NFκB response,"[6]; 3 µM, 21 h",42295.79 GFP+-cells/confluence ∙ 1000
same,Mean NFκB response,"[6]; 3 µM, 24 h",44964.03 GFP+-cells/confluence ∙ 1000
same,ΔTm at 20 µM,[7],0.53 °C
same,ΔTm at 20 µM,[8],0.0336 °C
same,ΔTm at 20 µM,[9],-3.37 °C
same,VP16 control [fold reporter gene activity],[10]; 0.3 µM,1.09 fold reporter gene activity and 0.88 fold reporter gene activity and 1.33 fold reporter gene activity
same,VP16 control [fold reporter gene activity],[10]; 3 µM,1.11 fold reporter gene activity and 1.04 fold reporter gene activity and 1.49 fold reporter gene activity
same,Necrosis induction [NI],[11]; 0.3 µM,0.97 and 1.43 and 0.88 and 1.20
same,Necrosis induction [NI],[11]; 3 µM,1.55 and 1.35 and 1.14 and 1.44
same,ΔTm at 20 µM,[12],-1.45 °C
same,ΔTm at 20 µM,[13],-1.98 °C
same,ΔTm at 20 µM,[14],-0.23 °C
same,ΔTm at 20 µM,[15],0.29 °C
